Experimental data from patent publication US9291629B2, “Adiponectin receptor C-terminal fragments (CTF)-immunoglobulin” (Siemens Healthcare Diagnostics Inc., priority 2011, dated 2016).

What was measured:
CTF immunoglobulin = assay: Western blot of CTF immunoglobulin in tissues of diabetic rats treated with AdipoR1 CTF25; assay type: in vivo; conditions: for Primarily observed immunoglobulin chains with CTF: treated diabetic rats
Method: Western blot analyses were run on human plasma, pancreas, adipose, liver and muscles tissue, as well as myocytes and epithelial cell culture homogenates according to the following methods and variations thereof.
(§1) Samples and homogenates with protein concentration of about 20 ug/ml were boiled in water for 5 minutes in buffer with SDS and chilled on ice to denature the protein. The sample was then centrifuged to remove precipitate and was boiled sample 1:1 with BioRad Laemmli buffer with 5% beta-mercaptoethanol to break the disulfide bonds. The treated samples were loaded onto the 12% or 10% Ready Gel (Biorad) and SDS-PAGE gel was run in Tris, glycine, SDS buffer (BioRad) at 110V (BioRad PROTEAN® Tetra Cel) for 1-1.5 hours until the bromophenol blue reached the bottom of the gel. Gel plates were disassembled, soaked in transfer buffer and the gels were transferred to 0.2 um nitrocellulose paper at 30V in a 4° C. chamber overnight.
(§2) After the protein transfer, the nitrocellulose was rinsed and washed with TTBS buffer (20 mM Tris, 500 mM NaCl, pH 7.4, 0.1% Tween®-20). The membrane was then blocked with 5% BSA in TTBS at room temperature with gentle agitation. The blocking buffer was then removed and the membrane was incubated with antibodies conjugated to alkaline phosphatase or horse radish peroxidase. For AdipoR1 CTF, the mAb 444-1D12 conjugated to alkaline phosphatase was used (2.5 mg/ml diluted 1:1000 Siemens Healthcare Diagnostics). The membrane with antibody conjugate was incubated at room temperature for 3 hours or at 4° C. overnight with gentle agitation. The antibody was then discarded and the gel was washed three times with TTBS for 5 minutes each. The membrane was incubated with the alkaline phosphate or horse radish peroxidase substrate and the color developed and recorded. In some cases the membrane was imaged by exposure to X-ray film (Fisher) at a desired time (3 seconds to 10 minutes) and then developed using Kodak® GBX developer/fixer.
The results of the western blots obtained on liver, pancreas, muscle and mesenteric tissues of normal rats, diabetic rats and diabetic rats treated with AdipoR1 CTF25 (SEQ ID NO: 11) are shown in Table 3. Results are typical for all monoclonal antibodies to CTF AdipoR1 and AdipoR2 and treatments tested. All of the tissues show the presence of CTF immunoglobulins. […] Differences in the amount of immunoglobulin chains with CTF were observed between individual rat and between normal and diabetic rats. All tissues contained IDE and TACE.

mouse myocytes (C2C12) = assay: Western blot of CTF immunoglobulin in induced mouse myocytes (C2C12); assay type: cell-based; conditions: for Increase of CTF immunoglobulin on treatment of cell cultures: myocyte cell culture; for Primarily observed immunoglobulin chains with CTF: treated myocyte, denatured western blot of lysates
Method: as §1, §2
(§3) Cell culture mouse myocytes (C2C12) and green monkey epithelial cell (VERO) (American Type Cell Culture, ATCC, Manassa Va.) were maintained in culture using RPMI-1640 media, while normal cells were maintained with modified Eagle's medium (MEM). Both media contained 2 mM glutamine, penicillin (50 units/ml), streptomycin (50 μg/ml), and 10% fetal bovine serum. The media was cytokine free. Cells were grown at 37° C. in an atmosphere of 95% air and 5% CO2 and propagated by splitting with 1 to 4 dilutions using PBS/EDTA at cell growth confluence. Cell lines were synchronized and induced with R1 CTF25 SEQ ID NO:11 or globular adiponectin.
(§4) Both cell lines expressed Adiponectin receptor 1 and lysates from both cell lines contained CTF immunoglobulin, comprising the heavy chain and full IgG but without the light chain form on denatured Western blots. As these are cell cultures grown in fetal bovine serum containing bovine IgG, the cells attach CTF to IgG. […]

[1] = test system: green monkey epithelial cell (VERO); assay: Western blot of CTF immunoglobulin in induced green monkey epithelial cells (VERO); assay type: cell-based; conditions: for Increase of CTF immunoglobulin on treatment of cell cultures: epithelial cell culture; for Primarily observed immunoglobulin chains with CTF: treated epithelial cells, denatured western blot of lysates
Method: as §1, §2, §3, §4

| Substance | Increase of CTF immunoglobulin bands on treatment (CTF immunoglobulin; rat tissues) | Primarily observed immunoglobulin chains with CTF (CTF immunoglobulin; liver) | Primarily observed immunoglobulin chains with CTF (CTF immunoglobulin; mesenteric tissues) | Primarily observed immunoglobulin chains with CTF (CTF immunoglobulin; muscle) | Primarily observed immunoglobulin chains with CTF (CTF immunoglobulin; pancreas) | Increase of CTF immunoglobulin on treatment of cell cultures (mouse myocytes (C2C12)) | Primarily observed immunoglobulin chains with CTF (mouse myocytes (C2C12)) | Increase of CTF immunoglobulin on treatment of cell cultures [1] | Primarily observed immunoglobulin chains with CTF [1] |
| --- | --- | --- | --- | --- | --- | --- | --- | --- | --- |
| HFYGVSNLQEFRYGLEGGCTDDTLL [AdipoR1 CTF25] | did not increase bands | Light chains | Heavy & light | Heavy & light | Heavy chain | did not increase CTF immunoglobulin | Heavy chains & | did not increase CTF immunoglobulin | Heavy chains & |
| adiponectin [reference compound] | – | – | – | – | – | did not increase CTF immunoglobulin bands | Heavy chains & full | did not increase CTF immunoglobulin bands | Heavy chains & full |
